The results in this text go back to patent US10745360B2, “Quinoxaline compounds, method for preparing the same and use thereof” (Development Center for Biotechnology, priority 2014, dated 2020).

As a reminder, the IC50 is the concentration at which inhibition is half-maximal.

Experiment [1] deals with B-Raf^V600E mutant COLO205 colon cancer cell. Put plainly: Cell proliferation assay (CELLTITER 96), COLO205. Format: cell-based. Particulars: Homo sapiens, COLO 205; COLO205, 72 hours; read-out: Cytotoxicity (IC50 Ranking) COLO205 (B-Raf^V600E). A digest of the protocol: (§1)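 Cells seeded overnight (A375 and COLO205 at 2000, SK-MEL-2 at 4000 cells/well), then exposed to increasing compound concentrations for 72 h at 37° C. Viability read by MTS absorbance at 490 nm after 4 h reagent; IC50 from curve fit of percent growth inhibition versus concentration.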

For experiment [2], the system named is B-Raf^V600E mutant A375 melanoma cell. Put plainly: Cell proliferation assay (CELLTITER 96), A375. As to conditions: Homo sapiens, A-375; A375, 72 hours; read-out: Cytotoxicity (IC50 Ranking) A375 (B-Raf^V600E). Format: cell-based. An outline of the steps:
as §1

Another experiment addresses T1, B-Raf^V600E kinase (Homo sapiens, UniProt P15056, V600E).
T1 construct: purchased Upstate Biotechnology
Put plainly: B-Raf V600E kinase assay ([33P] incorporation into MEK1 K97R). Format: biochemical. Particulars: recombinant B-Raf^V600E, 8 μM ATP, 30 min, 30° C.; read-out: IC50 ranking against B-Raf^V600E kinase. An outline of the steps: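 Recombinant B-Raf V600E (5 ng) phosphorylating MEK1 K97R (500 ng) with 8 μM ATP plus [33P]ATP in Tris pH 7.5 buffer, 30 min at 30 °C. Filter-bound 33P counted by scintillation; IC50 from 3-fold dilution series in duplicate.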

Another experiment has as its target T2, B-Raf kinase (Homo sapiens, UniProt P15056).
T2 construct: purchased Upstate Biotechnology
Put plainly: B-Raf kinase assay ([33P] incorporation into MEK1 K97R). It is filed as biochemical. As to conditions: recombinant B-Raf, 8 μM ATP, 30 min, 30° C.; read-out: IC50 ranking against B-Raf kinase. An outline of the steps:
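Recombinant B-Raf (5 ng) phosphorylating MEK1 K97R (500 ng) with 8 μM ATP plus [33P]ATP in Tris/HCl pH 7.5 buffer, 30 min at 30° C. Filter-captured 33P counted by scintillation; IC50 from 3-fold serial dilutions run in duplicate.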

The test system of experiment [3] is SK-MEL-2 melanoma cell with wild type B-Raf (B-Raf^wt) and NRAS^Q61R mutation. Put plainly: Cell proliferation assay (CELLTITER 96), SK-MEL-2. Particulars: Homo sapiens; SK-MEL-2, 72 hours; given as bound; read-out: Cytotoxicity (IC50 Ranking) SK-MEL-2 (NRAS^Q61R, B-Raf^wt). Format: cell-based. A digest of the protocol: as §1
The next experiment addresses T3, C-Raf kinase (Homo sapiens, UniProt P04049).
T3 construct: purchased Upstate Biotechnology
Put plainly: C-Raf kinase assay ([33P] incorporation into MEK1 K97R). As to conditions: recombinant C-Raf, 8 μM ATP, 30 min, 30° C.; read-out: IC50 ranking against C-Raf kinase. Format: biochemical. An outline of the steps: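 Recombinant C-Raf (2 ng) phosphorylating MEK1(K97R) with 8 μM ATP plus [33P]ATP, pH 7.5 Tris buffer, 30 min at 30° C. Acid-stopped, filter-captured 33P counted by scintillation; IC50 from 3-fold dilution series run in duplicate.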

T1 sequence (P15056 whole entry V600E): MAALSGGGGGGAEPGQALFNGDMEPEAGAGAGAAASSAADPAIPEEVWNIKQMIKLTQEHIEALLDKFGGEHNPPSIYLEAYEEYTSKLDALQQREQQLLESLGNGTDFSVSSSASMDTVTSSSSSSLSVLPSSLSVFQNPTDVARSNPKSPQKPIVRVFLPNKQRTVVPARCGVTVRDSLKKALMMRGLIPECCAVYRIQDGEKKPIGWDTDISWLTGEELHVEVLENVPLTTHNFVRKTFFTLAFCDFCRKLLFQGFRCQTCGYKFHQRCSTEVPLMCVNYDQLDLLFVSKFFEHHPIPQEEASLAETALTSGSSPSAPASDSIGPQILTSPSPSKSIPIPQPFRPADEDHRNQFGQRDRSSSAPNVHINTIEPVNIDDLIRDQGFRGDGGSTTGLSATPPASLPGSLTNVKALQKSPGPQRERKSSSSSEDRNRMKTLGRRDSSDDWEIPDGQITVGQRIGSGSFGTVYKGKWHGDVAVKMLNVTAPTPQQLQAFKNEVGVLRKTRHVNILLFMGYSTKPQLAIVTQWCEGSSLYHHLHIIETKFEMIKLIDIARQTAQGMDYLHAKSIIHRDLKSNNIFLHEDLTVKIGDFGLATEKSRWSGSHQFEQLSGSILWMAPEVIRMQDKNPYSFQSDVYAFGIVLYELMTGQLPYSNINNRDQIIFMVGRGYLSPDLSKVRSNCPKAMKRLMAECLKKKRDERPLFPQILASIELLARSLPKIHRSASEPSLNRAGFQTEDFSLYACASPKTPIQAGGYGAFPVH
T3 sequence (P04049 whole entry): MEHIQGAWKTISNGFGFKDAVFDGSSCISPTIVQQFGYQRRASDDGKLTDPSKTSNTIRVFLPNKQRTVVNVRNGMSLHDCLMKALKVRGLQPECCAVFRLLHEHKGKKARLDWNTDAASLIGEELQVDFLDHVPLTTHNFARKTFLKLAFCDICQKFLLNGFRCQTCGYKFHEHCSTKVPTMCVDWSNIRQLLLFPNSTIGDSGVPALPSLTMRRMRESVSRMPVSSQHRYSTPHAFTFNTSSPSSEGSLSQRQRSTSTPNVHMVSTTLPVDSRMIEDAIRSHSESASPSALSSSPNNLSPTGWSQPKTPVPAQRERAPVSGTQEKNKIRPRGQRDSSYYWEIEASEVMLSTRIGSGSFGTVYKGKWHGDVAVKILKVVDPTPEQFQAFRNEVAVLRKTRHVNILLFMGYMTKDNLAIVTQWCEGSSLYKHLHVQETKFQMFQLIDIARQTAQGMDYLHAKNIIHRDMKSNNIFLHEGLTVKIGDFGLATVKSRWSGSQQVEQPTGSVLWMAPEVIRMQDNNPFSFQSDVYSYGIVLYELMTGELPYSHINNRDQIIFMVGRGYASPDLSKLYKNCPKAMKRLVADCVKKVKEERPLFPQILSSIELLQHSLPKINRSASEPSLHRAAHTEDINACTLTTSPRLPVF
T2 sequence (P15056 whole entry): as the sequence (P15056 whole entry V600E) above, with E600V counted along it

In the case of `CN(C)c1cnc2ccc(Nc3cc(NS(=O)(=O)c4ccccc4)ccc3F)c(C#N)c2n1` [compound 37, N-(3-(5-cyano-3-(dimethylamino)quinoxalin-6-ylamino)-4-fluorophenyl)benzenesulfonamide], the half-inhibitory concentration (IC50) in experiment [1] is 1000 to 10000 nM; in experiment [2] it was 1000 to 10000 nM; at B-Raf^V600E kinase it was under 300 nM; at B-Raf kinase it was under 300 nM; in experiment [3], over 10000 nM; on C-Raf kinase, under 300 nM.
As for `CCCS(=O)(=O)Nc1cccc(Nc2ccc3ncc(N4CCOCC4)nc3c2C#N)c1C` [compound 38, N-(3-(5-cyano-3-morpholinoquinoxalin-6-ylamino)-2-methylphenyl)propane-1-sulfonamide], the IC50 was under 300 nM in experiment [1]; under 300 nM in experiment [2]; under 300 nM at B-Raf^V600E kinase; under 300 nM on B-Raf kinase; over 10000 nM in experiment [3]; under 300 nM at C-Raf kinase.
As for `CCCS(=O)(=O)Nc1ccc(C)c(Nc2ccc3ncc(N4CCOCC4)nc3c2C#N)c1` [compound 39, N-(3-(5-cyano-3-morpholinoquinoxalin-6-ylamino)-4-methylphenyl)propane-1-sulfonamide], the IC50 is 1000 to 10000 nM in experiment [1]; 1000 to 10000 nM in experiment [2]; 300 to 1000 nM at B-Raf^V600E kinase; 300 to 1000 nM on B-Raf kinase; over 10000 nM in experiment [3]; 1000 to 10000 nM on C-Raf kinase.
`CCCS(=O)(=O)Nc1ccc(C)c(Nc2ccc3ncc(OC)nc3c2C#N)c1` [compound 40, N-(3-(5-cyano-3-methoxyquinoxalin-6-ylamino)-4-methylphenyl)propane-1-sulfonamide]: the 50% inhibitory concentration (IC50) in experiment [1] is 1000 to 10000 nM; in experiment [2], 1000 to 10000 nM; on B-Raf^V600E kinase it was 300 to 1000 nM; on B-Raf kinase, 300 to 1000 nM; in experiment [3] it was over 10000 nM; on C-Raf kinase, 300 to 1000 nM.
In the case of `COc1cnc2ccc(Nc3cc(NS(C)(=O)=O)ccc3F)c(C#N)c2n1` [compound 41, N-(3-(5-cyano-3-methoxyquinoxalin-6-ylamino)-4-fluorophenyl)methanesulfonamide], the IC50 in experiment [1] is 1000 to 10000 nM; in experiment [2], 1000 to 10000 nM; on B-Raf^V600E kinase, 1000 to 10000 nM; on B-Raf kinase, 1000 to 10000 nM; in experiment [3] it was over 10000 nM; at C-Raf kinase, 1000 to 10000 nM.
As to `CCCS(=O)(=O)N(CC)c1ccc(F)c(Nc2ccc3ncc(OC)nc3c2C#N)c1F` [compound 42, N-(3-(5-cyano-3-methoxyquinoxalin-6-ylamino)-2,4-difluorophenyl)-N-ethylpropane-1-sulfonamide], the IC50 in experiment [1] is under 300 nM; in experiment [2] it was under 300 nM; at B-Raf^V600E kinase, under 300 nM; at B-Raf kinase, under 300 nM; in experiment [3] it was over 10000 nM; on C-Raf kinase, under 300 nM.
With `CCCS(=O)(=O)N(C)c1ccc(F)c(Nc2ccc3ncc(OC)nc3c2C#N)c1F` [compound 43, N-(3-(5-cyano-3-methoxyquinoxalin-6-ylamino)-2,4-difluorophenyl)-N-methylpropane-1-sulfonamide], the half-inhibitory concentration (IC50) was under 300 nM in experiment [1]; under 300 nM in experiment [2]; under 300 nM at B-Raf^V600E kinase; under 300 nM at B-Raf kinase; over 10000 nM in experiment [3]; under 300 nM on C-Raf kinase.
For the compound `CCCS(=O)(=O)Nc1cccc(Nc2ccc3ncc(OC)nc3c2C#N)c1C` [compound 44, N-(3-(5-cyano-3-methoxyquinoxalin-6-ylamino)-2-methylphenyl)propane-1-sulfonamide], the IC50 in experiment [1] was 300 to 1000 nM; in experiment [2], 300 to 1000 nM; on B-Raf^V600E kinase it was 300 to 1000 nM; at B-Raf kinase it was under 300 nM; in experiment [3], over 10000 nM; on C-Raf kinase, under 300 nM.
On to `CCCS(=O)(=O)Nc1ccc(F)c(Nc2ccc3ncc(OC)nc3c2C#N)c1Cl` [compound 46, N-(2-chloro-3-(5-cyano-3-methoxyquinoxalin-6-ylamino)-4-fluorophenyl)propane-1-sulfonamide], for which the IC50 is under 300 nM in experiment [1]; under 300 nM in experiment [2]; under 300 nM on B-Raf^V600E kinase; under 300 nM on B-Raf kinase; over 10000 nM in experiment [3]; under 300 nM at C-Raf kinase.
Turning to `COc1cnc2ccc(Nc3c(F)ccc(NS(=O)(=O)c4ccccc4)c3Cl)c(C#N)c2n1` [compound 47, N-(2-chloro-3-(5-cyano-3-methoxyquinoxalin-6-ylamino)-4-fluorophenyl)benzenesulfonamide], the IC50 in experiment [1] is under 300 nM; in experiment [2] it was under 300 nM; on B-Raf^V600E kinase it was under 300 nM; on B-Raf kinase, under 300 nM; in experiment [3] it was over 10000 nM; at C-Raf kinase it was under 300 nM.
In the case of `CCCS(=O)(=O)Nc1ccc(F)c(Nc2ccc3ncc(N4CCOCC4)nc3c2C#N)c1Cl` [compound 48, N-(2-chloro-3-(5-cyano-3-morpholinoquinoxalin-6-ylamino)-4-fluorophenyl)propane-1-sulfonamide], the IC50 was under 300 nM in experiment [1]; under 300 nM in experiment [2]; under 300 nM at B-Raf^V600E kinase; under 300 nM at B-Raf kinase; over 10000 nM in experiment [3]; under 300 nM at C-Raf kinase.
`N#Cc1c(Nc2c(F)ccc(NS(=O)(=O)c3ccccc3)c2Cl)ccc2ncc(N3CCOCC3)nc12` [compound 49, N-(2-chloro-3-(5-cyano-3-morpholinoquinoxalin-6-ylamino)-4-fluorophenyl)benzenesulfonamide]: the IC50 is under 300 nM in experiment [1]; under 300 nM in experiment [2]; under 300 nM at B-Raf^V600E kinase; under 300 nM at B-Raf kinase; over 10000 nM in experiment [3]; under 300 nM on C-Raf kinase.
For `CCCS(=O)(=O)Nc1cccc(Nc2ccc3ncc(OC)nc3c2C#N)c1C#N` [compound 50, N-(2-cyano-3-(5-cyano-3-methoxyquinoxalin-6-ylamino)phenyl)propane-1-sulfonamide], the IC50 was under 300 nM in experiment [1]; under 300 nM in experiment [2]; under 300 nM at B-Raf^V600E kinase; under 300 nM at B-Raf kinase; over 10000 nM in experiment [3]; under 300 nM at C-Raf kinase.
